Reference: patent US12686690B2, “Macrocyclic urea orexin receptor agonists” (Merck Sharp & Dohme LLC, priority 2020, dated 2026)

Molecular target: T1, hOX2R (Homo sapiens, UniProt O43614)
T1 construct: expressed in transfected cells; host or cells: CHO cells (G418 selection)
T1 sequence (O43614 1-444): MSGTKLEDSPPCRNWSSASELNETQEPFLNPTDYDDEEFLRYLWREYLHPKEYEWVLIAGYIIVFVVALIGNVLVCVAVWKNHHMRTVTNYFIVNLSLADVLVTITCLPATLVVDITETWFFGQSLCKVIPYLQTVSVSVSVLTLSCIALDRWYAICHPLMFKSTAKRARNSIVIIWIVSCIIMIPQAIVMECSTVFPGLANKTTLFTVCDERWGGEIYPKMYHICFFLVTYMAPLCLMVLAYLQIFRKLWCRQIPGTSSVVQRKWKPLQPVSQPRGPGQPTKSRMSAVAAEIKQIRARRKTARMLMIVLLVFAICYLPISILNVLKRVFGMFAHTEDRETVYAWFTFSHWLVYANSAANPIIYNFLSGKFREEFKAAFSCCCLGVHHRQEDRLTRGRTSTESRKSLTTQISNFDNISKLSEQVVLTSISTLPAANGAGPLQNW
Experiment: hOX2R IPone assay (orexin receptor agonism)
Format: cell-based
Details: IPone readout; for hOX2R_Ipone max %act: maximal activation; for EC50: orexin receptor agonist, read-out: hOX2R_IPone EC50

| hOX2R_Ipone max %act [%] | EC50 [nM] | Compound |
| --- | --- | --- |
| 72.77 | 541 | CCN1C(=O)N[C@@H](CCC(F)(F)F)CCCCCOc2nc(cn3ccnc23)-c2cnnc(c2)[C@H]1C [Example 159, (3R,7R,E)-4-ethyl-3-methyl-7-(3,3,3-trifluoropropyl)-13-oxa-4,6-diaza-1(6,8)-imidazo[1,2-a]pyrazina-2(5,3)-pyridazinacyclotridecaphan-5-one] |
| 103.5 | 11.9 | CCN1C(=O)NC(CCC(F)(F)F)CCOCCOc2nc(cn3ccnc23)-c2cc(ncc2OC)[C@H]1C (single isomer, unassigned) [Example 6A] |
| 99.85 | 0.69 | CCN1C(=O)NC(C2CCOC2)CCCCCOc2nc(cn3ccnc23)-c2cc(ncc2OC)[C@H]1C (stereo partly drawn) [Example 189, (3R,E)-4-ethyl-25-methoxy-3-methyl-7-(tetrahydrofuran-3-yl)-13-oxa-4,6-diaza-1(6,8)-imidazo[1,2-a]pyrazina-2(4,2)-pyridinacyclotridecaphan-5-one] |
| 89.95 | 271 | CCN1C(=O)N[C@@H](CCC(F)(F)F)CCCCCOc2nc(cn3ccnc23)-c2ccnc(c2)C1(C)C [Example 143, (R,E)-4-ethyl-3,3-dimethyl-7-(3,3,3-trifluoropropyl)-13-oxa-4,6-diaza-1(6,8)-imidazo[1,2-a]pyrazina-2(4,2)-pyridinacyclotridecaphan-5-one] |
| 101.2 | 0.9 | CCN1C(=O)N[C@@H](CCC(F)(F)F)CCCCCOc2nc(cn3ccnc23)-c2cc(nc3ccoc23)C1C (single isomer, unassigned) [Example 74B] |
| 101.1 | 0.9 | CCN1C(=O)NC(COC)CCCCCOc2nc(cn3ccnc23)-c2cc(ncc2OC)[C@H]1C (single isomer, unassigned) [Example 58B] |
| 100.9 | 6 | CCN1C(=O)NC(C)CCCCCOc2nc(cn3ccnc23)-c2cc(ncc2OC)[C@H]1C (single isomer, unassigned) [Example 9B] |
| 98.4 | 17.7 | CCN1Cc2cc(ccn2)-c2cn3ccnc3c(n2)OCCCCC[C@H](CCC(F)(F)F)NC1=O [Example 120, (16R)-13-ethyl-16-(3,3,3-trifluoropropyl)-12,13,16,17,18,19,20,21-octahydro-6,23-(azeno)-11,7-(metheno)imidazo[2,1-c][1,4,10,13,15]oxatetraazacyclohenicosin-14(15H)-one] |
| 97.81 | 173 | CCN1C(=O)NCC(C(F)(F)F)N(C)CCOc2nc(cn3ccnc23)-c2cccc(c2)[C@H]1C (single isomer, unassigned) [Example 25B] |
| 99.62 | 1.1 | (9R,13R,E)-14-Cyclopropyl-12-ethyl-13-methyl-9-(3,3,3-trifluoropropyl)-3-oxa-10,12-diaza-1(5,2)-thiazola-2(6,8)-imidazo[1,2-a]pyrazinacyclotridecaphan-11-one [Example 209] |
| 100.6 | 6.4 | (3R,7S,E)-4-ethyl-25-methoxy-3-methyl-7-(3,3,3-trifluoropropyl)-13-oxa-10-thia-4,6-diaza-1(6,8)-[1,2,4]triazolo[1,5-a]pyrazina-2(4,2)-pyridinacyclotridecaphan-5-one [Example 134] |
| 100.3 | 11.9 | CCN1C(=O)N[C@@H](CCC(F)(F)F)CCCCCOc2cc(cn3ccnc23)-c2cc(ncn2)C1C (single isomer, unassigned) [Example 96A] |
| 101.7 | 0.61 | CCN1C(=O)NC(COCC(F)F)CCCCCOc2nc(cn3ccnc23)-c2cc(ncc2OC)[C@H]1C (mixture of isomers) [Example 190, (3R,E)-7-((2,2-difluoroethoxy)methyl)-4-ethyl-25-methoxy-3-methyl-13-oxa-4,6-diaza-1(6,8)-imidazo[1,2-a]pyrazina-2(4,2)-pyridinacyclotridecaphan-5-one] |
| 100.6 | 5.8 | CCN1C(=O)N[C@@H](CCC(F)(F)F)CCCCCOc2nc(nn3ccnc23)-c2cccc(c2)[C@H]1C [Example 87, (12R,16R)-13-ethyl-12-methyl-16-(3,3,3-trifluoropropyl)-12,13,16,17,18,19,20, 21-octahydro-6,23-(azeno)-11,7-(metheno)imidazo[2,1-c][1,4,5,13,15] oxatetraazacycloheni-cosin-14(15H)-one] |
| 102.5 | 13.8 | CCN1C(=O)N[C@@H](CCC(F)(F)F)CCCCCOc2nc(nn3cc(C)nc23)-c2cc(ncc2OC)[C@H]1C [Example 123, (3R,7R,E)-4-ethyl-25-methoxy-16,3-dimethyl-7-(3,3,3-trifluoropropyl)-13-oxa-4,6-diaza-1(2,4)-imidazo[2,1-f][1,2,4]triazina-2(4,2)-pyridinacyclotridecaphan-5-one] |
| 100.8 | 48.9 | CCN1C(=O)NC(COC)CCCCCOc2nc(cn3ccnc23)-c2cc(ncc2OC)[C@H]1C (single isomer, unassigned) [Example 58A] |
| 100.1 | 8.48 | CCN1C(=O)N[C@@H](CCC(F)(F)F)CCCCCc2cc(cn3ccnc23)-c2nc(ccc2OC)[C@H]1C [Example 138, (3R,7R,Z)-4-ethyl-23-methoxy-3-methyl-7-(3,3,3-trifluoropropyl)-4,6-diaza-1(6,8)-imidazo[1,2-a]pyridina-2(2,6)-pyridinacyclododecaphan-5-one] |
| 101.4 | 0.77 | CCN1C(=O)N[C@@H](CCC(C)(F)F)CCCCCOc2nc(c(C)n3ccnc23)-c2cc(ccn2)[C@H]1C [Example 160, (3R,7R,E)-7-(3,3-difluorobutyl)-4-ethyl-15,3-dimethyl-13-oxa-4,6-diaza-1(6,8)-imidazo[1,2-a]pyrazina-2(2,4)-pyridinacyclotridecaphan-5-one] |
| 106.1 | 1.05 | CCN1C(=O)N[C@@H](CCS(C)(=O)=O)CCCCCOc2nc(cn3ncnc23)-c2cc(ncc2OC)[C@H]1C [Example 154, (3R,7R,E)-4-ethyl-25-methoxy-3-methyl-7-(2-(methylsulfonyl)ethyl)-13-oxa-4,6-diaza-1(6,8)-[1,2,4]triazolo[1,5-a]pyrazina-2(4,2)-pyridinacyclotridecaphan-5-one] |
| 99.3 | 3.5 | CCN1C(=O)N[C@@H](CCC(F)(F)F)CCCCCOc2nc(c(C)n3ccnc23)-c2cc(cnc2OC)[C@H]1C [Example 86, (12R,16R)-13-ethyl-8-methoxy-5,12-dimethyl-16-(3,3,3-trifluoropropyl)-12,13,16,17,18,19,20, 21-octahydro-6,23-(azeno)-11,7-(metheno)imidazo[2,1-c][1,4,9,13,15] oxatetraazacycloheni-cosin-14(15H)-one] |
| 98.8 | 3.6 | CCN1C(=O)NC(CCC(F)(F)F)C(C)CCCOc2nc(cn3ccnc23)-c2cccc(c2)[C@H]1C (single isomer, unassigned) [Example 42D] |
| 104.8 | 2.39 | C[C@@H]1c2cc(c(F)cn2)-c2nc(c3nccn3n2)OCCCCCC(CCC(F)F)NC(=O)N1C1CC1 (stereo partly drawn) [Example 205, (3R,E)-4-cyclopropyl-7-(3,3-difluoropropyl)-25-fluoro-3-methyl-13-oxa-4,6-diaza-1(2,4)-imidazo[2,1-f] [1,2,4] triazina-2(4,2)-pyridinacyclo-tridecaphan-5-one] |
| 101.4 | 6.09 | CCN1C(=O)N[C@@H](CCC(F)(F)F)CCCCOCc2nc(cn3ccnc23)-c2cc(ncc2OC)[C@H]1C [Example 144, (3R,7R,E)-4-ethyl-25-methoxy-3-methyl-7-(3,3,3-trifluoropropyl)-12-oxa-4,6-diaza-1(6,8)-imidazo[1,2-a]pyrazina-2(4,2)-pyridinacyclotridecaphan-5-one] |
| 100.7 | 0.5 | CCN1C(=O)NC(CCC(F)(F)F)CCC(F)(F)CCOc2nc(cn3ccnc23)-c2cc(ncc2OC)[C@H]1C (single isomer, unassigned) [Example 121B] |
| 100.9 | 115 | CCN1C(=O)NC(CCC(F)(F)F)C(C)/C=C\COc2nc(cn3ccnc23)-c2cccc(c2)[C@H]1C (single isomer, unassigned) [Example 41A] |
